Assays:
[1] = tested on: antibodies in sera from SARS patients (sera 1a, 1b, 2, 6, 37, 62, London, SARS-yellow, SARS-green); format: binding, human; parameters: Binding of serum 6 to linear peptides of protein X1 of SARS-CoV Urbani / Binding of serum 37 to linear peptides of protein X1 of SARS-CoV Urbani / Binding of serum 6 to looped/cyclic peptide (PEPSCAN-ELISA) / Binding of serum 37 to looped/cyclic peptide (PEPSCAN-ELISA) / Binding of serum 37 to looped/cyclic peptides of protein X1 of SARS-CoV Urbani / Binding of serum 6 to linear peptides of protein X2 / Binding of serum 37 to linear peptides of protein X2 / Binding of serum 37 to looped/cyclic peptides of protein X2 of SARS-CoV Urbani / Binding of serum 6 to linear peptides of protein M of SARS-CoV Urbani / Binding of serum 37 to linear peptides of protein M of SARS-CoV Urbani / Binding of serum 6 to looped/cyclic peptides of protein M of SARS-CoV Urbani / Binding of serum 37 to looped/cyclic peptides of protein M of SARS-CoV Urbani / Binding of serum 6 to linear peptides of protein X3 of SARS-CoV Urbani / Binding of serum 37 to linear peptides of protein X3 of SARS-CoV Urbani / Binding of serum 37 to looped/cyclic peptides of protein X3 of SARS-CoV Urbani / Binding of serum 6 to linear peptides of protein X4 of SARS-CoV Urbani / Binding of serum 37 to linear peptides of protein X4 of SARS-CoV Urbani / Binding of serum 37 to looped/cyclic peptides of protein X4 of SARS-CoV Urbani / Binding of serum 6 to linear peptides of protein X5 of SARS-CoV Urbani / Binding of serum 37 to linear peptides of protein X5 of SARS-CoV Urbani / Binding of serum 37 to looped/cyclic peptides of protein X5 of SARS-CoV Urbani / Binding of serum 6 to linear peptides of protein N of SARS-CoV Urbani / Binding of serum 37 to linear peptides of protein N of SARS-CoV Urbani / Binding of serum 6 to linear peptide (PEPSCAN-ELISA) / Binding of serum 1a to looped/cyclic peptides of protein N of SARS-CoV Urbani / Binding of serum 1b to looped/cyclic peptides of protein N of SARS-CoV Urbani / Binding of serum 2 to looped/cyclic peptides of protein N of SARS-CoV Urbani / Binding of serum 6 to looped/cyclic peptides of protein N of SARS-CoV Urbani / Binding of serum 37 to looped/cyclic peptides of protein N of SARS-CoV Urbani / Binding of serum 62 to looped/cyclic peptides of protein N of SARS-CoV Urbani / Binding of serum London to looped/cyclic peptides of protein N of SARS-CoV Urbani / Binding of serum SARS-green to looped/cyclic peptides of protein N of SARS-CoV Urbani: unit not given here
[2] = tested on: control sera (pooled serum of ten healthy LUMC hospital workers; commercial negative donor pooled serum from the Dutch bloodbank); format: binding, human; parameters: Binding of Control serum LUMC to linear peptides / Binding of Control serum Blood-bank to linear peptides / Binding of Control serum LUMC to looped peptides / Binding of Control Serum Blood-Bank to Looped peptides / Binding of Control serum LUMC to linear peptides of the protein M of SARS-CoV Urbani / Binding of Control serum Blood-bank to linear peptides of the protein M of SARS-CoV Urbani / Binding of Control serum LUMC to looped peptides of the protein M of SARS-CoV Urbani / Binding of Control Serum Blood-Bank to Looped peptides of the protein M of SARS-CoV Urbani: unit not given here
[3] = tested on: rabbit serum obtained by immunizing a rabbit with the SARS-CoV strain Frankfurt 1; format: binding; parameters: Binding of a rabbit serum to linear peptides / Binding of a rabbit serum to looped peptides / Rabbit serum linear peptides / Rabbit serum looped peptides / Binding of a rabbit serum to linear peptides of protein N of SARS-CoV Urbani (Rabbit serum linear peptides) / Binding of a rabbit serum to looped/cyclic peptides of protein N of SARS-CoV Urbani (Rabbit serum looped peptides): unit not given here

Row | Sequence | Recognition of the peptide by sera of SARS-CoV infected individuals, and form (linear, looped/cyclic) in which it is recognized [1] | Binding of Control Serum Blood-Bank to Looped peptides [2] | Binding of Control serum Blood-bank to linear peptides [2] | Binding of Control serum LUMC to linear peptides [2] | Binding of Control serum LUMC to looped peptides [2] | Rabbit serum linear peptides [3] | Rabbit serum looped peptides [3] | Binding of serum 1a to linear peptides of protein M of SARS-CoV Urbani [1] | Binding of serum 1a to looped/cyclic peptides of protein M of SARS-CoV Urbani [1] | Binding of serum 1b to linear peptides of protein M of SARS-CoV Urbani [1] | Binding of serum 1b to looped/cyclic peptides of protein M of SARS-CoV Urbani [1] | Binding of serum 2 to linear peptides of protein M of SARS-CoV Urbani [1] | Binding of serum 2 to looped/cyclic peptides of protein M of SARS-CoV Urbani [1] | Binding of serum 6 to linear peptides of protein M of SARS-CoV Urbani [1] | Binding of serum 6 to looped/cyclic peptides of protein M of SARS-CoV Urbani [1] | Binding of serum 37 to linear peptides of protein M of SARS-CoV Urbani [1] | Binding of serum 37 to looped/cyclic peptides of protein M of SARS-CoV Urbani [1] | Binding of serum 62 to linear peptides of protein M of SARS-CoV Urbani [1] | Binding of serum 62 to looped/cyclic peptides of protein M of SARS-CoV Urbani [1] | Binding of serum London to linear peptides of protein M of SARS-CoV Urbani [1] | other results
1 | RQEEVQQELYSPLFL | recognized in looped/cyclic form | 0.8 | 0.7 | 0.6 | 0.9 | 0.5 | 0.6 | – | – | – | – | – | – | – | – | – | – | – | – | – | Binding of serum 1a to linear peptides of protein X4 of SARS-CoV Urbani [1]: 0.8; Binding of serum 1b to linear peptides of protein X4 of SARS-CoV Urbani [1]: 0.6; Binding of serum 2 to linear peptides of protein X4 of SARS-CoV Urbani [1]: 0.5; Binding of serum 6 to linear peptides of protein X4 of SARS-CoV Urbani [1]: 0.5; Binding of serum 37 to linear peptides of protein X4 of SARS-CoV Urbani [1]: 0.8; Binding of serum 62 to linear peptides of protein X4 of SARS-CoV Urbani [1]: 0.8; Binding of serum London to linear peptides of protein X4 of SARS-CoV Urbani [1]: 0.7; Binding of serum SARS-green to linear peptides of protein X4 of SARS-CoV Urbani [1]: 0.7; Binding of serum SARS-yellow to linear peptides of protein X4 of SARS-CoV Urbani [1]: 0.7
2 | RRLLACLCKHKKVST | recognized in linear form | 0.2 | 0.9 | 0.7 | 0.3 | – | – | – | – | – | – | – | – | – | – | – | – | – | – | – | Binding of serum 1a to looped/cyclic peptides of protein X2 of SARS-CoV Urbani [1]: 0.2; Binding of serum 1b to looped/cyclic peptides of protein X2 of SARS-CoV Urbani [1]: 0.1; Binding of serum 2 to looped/cyclic peptides of protein X2 of SARS-CoV Urbani [1]: 0.1; Binding of serum 6 to looped/cyclic peptides of protein X2 of SARS-CoV Urbani [1]: 0.2; Binding of serum 37 to looped/cyclic peptides of protein X2 of SARS-CoV Urbani [1]: 0.2; Binding of serum 62 to looped/cyclic peptides of protein X2 of SARS-CoV Urbani [1]: 0.4; Binding of serum London to looped/cyclic peptides of protein X2 of SARS-CoV Urbani [1]: 0.2; Binding of serum SARS-green to looped/cyclic peptides of protein X2 of SARS-CoV Urbani [1]: 0.2; Binding of serum SARS-yellow to looped/cyclic peptides of protein X2 of SARS-CoV Urbani [1]: 0.2; Binding of a rabbit serum to linear peptides [3]: 0.6; Binding of a rabbit serum to looped peptides [3]: 0.3
3 | RRRLLACLCKHKKVS | recognized in linear form | 0.3 | 0.7 | 0.6 | 0.2 | – | – | – | – | – | – | – | – | – | – | – | – | – | – | – | Binding of serum 1a to looped/cyclic peptides of protein X2 of SARS-CoV Urbani [1]: 0.2; Binding of serum 1b to looped/cyclic peptides of protein X2 of SARS-CoV Urbani [1]: 0.1; Binding of serum 2 to looped/cyclic peptides of protein X2 of SARS-CoV Urbani [1]: 0.0; Binding of serum 6 to looped/cyclic peptides of protein X2 of SARS-CoV Urbani [1]: 0.1; Binding of serum 37 to looped/cyclic peptides of protein X2 of SARS-CoV Urbani [1]: 0.2; Binding of serum 62 to looped/cyclic peptides of protein X2 of SARS-CoV Urbani [1]: 0.3; Binding of serum London to looped/cyclic peptides of protein X2 of SARS-CoV Urbani [1]: 0.1; Binding of serum SARS-green to looped/cyclic peptides of protein X2 of SARS-CoV Urbani [1]: 0.1; Binding of serum SARS-yellow to looped/cyclic peptides of protein X2 of SARS-CoV Urbani [1]: 0.1; Binding of a rabbit serum to linear peptides [3]: 0.5; Binding of a rabbit serum to looped peptides [3]: 0.2
4 | RYRIGNYKLNTDHAG | – | – | – | – | – | 0.1 | 0.2 | 0.7 | 0.7 | 0.5 | 0.6 | 0.4 | 0.6 | 0.2 | 0.9 | 0.6 | 0.6 | 0.5 | 0.6 | 0.5 | Binding of serum London to looped/cyclic peptides of protein M of SARS-CoV Urbani [1]: 0.4; Binding of serum SARS-green to linear peptides of protein M of SARS-CoV Urbani [1]: 0.4; Binding of serum SARS-green to looped/cyclic peptides of protein M of SARS-CoV Urbani [1]: 0.3; Binding of serum SARS-yellow to linear peptides of protein M of SARS-CoV Urbani [1]: 0.2; Binding of serum SARS-yellow to looped/cyclic peptides of protein M of SARS-CoV Urbani [1]: 0.8; Binding of Control Serum Blood-Bank to Looped peptides of the protein M of SARS-CoV Urbani [2]: 0.7; Binding of Control serum Blood-bank to linear peptides of the protein M of SARS-CoV Urbani [2]: 0.7; Binding of Control serum LUMC to linear peptides of the protein M of SARS-CoV Urbani [2]: 0.5; Binding of Control serum LUMC to looped peptides of the protein M of SARS-CoV Urbani [2]: 0.7
5 | SELVIGAVIIRGHLR | – | – | – | – | – | 0.2 | 0.2 | 0.7 | 0.8 | 0.6 | 0.7 | 0.6 | 0.8 | 0.7 | 0.6 | 0.5 | 0.8 | 0.4 | 0.8 | 0.4 | Binding of serum London to looped/cyclic peptides of protein M of SARS-CoV Urbani [1]: 0.2; Binding of serum SARS-green to linear peptides of protein M of SARS-CoV Urbani [1]: 0.5; Binding of serum SARS-green to looped/cyclic peptides of protein M of SARS-CoV Urbani [1]: 0.3; Binding of serum SARS-yellow to linear peptides of protein M of SARS-CoV Urbani [1]: 0.3; Binding of serum SARS-yellow to looped/cyclic peptides of protein M of SARS-CoV Urbani [1]: 0.9; Binding of Control Serum Blood-Bank to Looped peptides of the protein M of SARS-CoV Urbani [2]: 0.6; Binding of Control serum Blood-bank to linear peptides of the protein M of SARS-CoV Urbani [2]: 0.8; Binding of Control serum LUMC to linear peptides of the protein M of SARS-CoV Urbani [2]: 0.9; Binding of Control serum LUMC to looped peptides of the protein M of SARS-CoV Urbani [2]: 0.6
6 | SFNPETNILLNVPLR | – | – | – | – | – | 0.5 | 0.4 | 0.7 | 0.8 | 0.4 | 0.7 | 0.5 | 0.9 | 0.3 | 0.8 | 0.7 | 0.7 | 0.7 | 0.8 | 0.3 | Binding of serum London to looped/cyclic peptides of protein M of SARS-CoV Urbani [1]: 0.3; Binding of serum SARS-green to linear peptides of protein M of SARS-CoV Urbani [1]: 0.3; Binding of serum SARS-green to looped/cyclic peptides of protein M of SARS-CoV Urbani [1]: 0.3; Binding of serum SARS-yellow to linear peptides of protein M of SARS-CoV Urbani [1]: 0.1; Binding of serum SARS-yellow to looped/cyclic peptides of protein M of SARS-CoV Urbani [1]: 1.0; Binding of Control Serum Blood-Bank to Looped peptides of the protein M of SARS-CoV Urbani [2]: 1.0; Binding of Control serum Blood-bank to linear peptides of the protein M of SARS-CoV Urbani [2]: 0.7; Binding of Control serum LUMC to linear peptides of the protein M of SARS-CoV Urbani [2]: 0.4; Binding of Control serum LUMC to looped peptides of the protein M of SARS-CoV Urbani [2]: 1.0
